Structures are written as SMILES.

The assay has as its system THP-1. The assay is described as follows: Cytotoxicity was determined against THP-1 cell line as reduction in cell number. In kind it is functional, cell-based. Particulars: Homo sapiens.

In general, IC50 refers to the concentration needed to halve the response being measured. Read a high IC50 as lower potency. With `C[N+](C)(C)Cc1cc(-c2c3nc(c(-c4ccccc4)c4ccc([nH]4)c(-c4ccc(O)c(C[N+](C)(C)C)c4)c4ccc([nH]4)c(-c4ccccc4)c4nc2C=C4)C=C3)ccc1O`, the IC50 was found to be 0.0618 µM. This counts as double-digit nanomolar.

In turn, `C[N+](C)(C)Cc1cc(-c2c3nc(cc4ccc([nH]4)c(-c4ccc(O)c(C[N+](C)(C)C)c4)c4nc(cc5ccc2[nH]5)C=C4)C=C3)ccc1O` yielded an IC50 of 0.0056 µM. This IC50 lies about 11-fold lower than the previous one.

In turn, `CCc1c2nc(c(-c3ccc(O)c(C[N+](C)(C)C)c3)c3ccc([nH]3)c(CC)c3ccc([nH]3)c(-c3ccc(O)c(C[N+](C)(C)C)c3)c3nc1C=C3)C=C2` had a half-maximal inhibitory concentration (IC50) of 0.0884 µM.

`CCc1c2nc(c(-c3ccc(OC)c(C[N+](C)(C)C)c3)c3ccc([nH]3)c(CC)c3ccc([nH]3)c(-c3ccc(OC)c(C[N+](C)(C)C)c3)c3nc1C=C3)C=C2`: the IC50 was determined as 1.4 µM.

Values taken from ChEMBL document CHEMBL1149213, “Porphyrin-DNA cross-linking agent hybrids: chemical synthesis and biological studies” (Bioorg Med Chem Lett, 2004).
